Results as given in patent US7880007B2, “Bicyclic substituted phenyl piperidine modulators of muscarinic receptors” (Vertex Pharmaceuticals Incorporated, priority 2004, dated 2011).

Key:
Type in all cases: cell-based
M2 muscarinic receptor = target: T1, M2 muscarinic receptor (Homo sapiens, UniProt P08172); assay: Functional mobilization of intracellular calcium (FLIPR), M2-CHO cells; conditions: for M2 Activity: M2-CHO cells, calcium mobilization (FLIPR)
T1 construct: expressed in transfected cells; host or cells: CHO (M2-CHO)
T1 sequence (P08172 1-466): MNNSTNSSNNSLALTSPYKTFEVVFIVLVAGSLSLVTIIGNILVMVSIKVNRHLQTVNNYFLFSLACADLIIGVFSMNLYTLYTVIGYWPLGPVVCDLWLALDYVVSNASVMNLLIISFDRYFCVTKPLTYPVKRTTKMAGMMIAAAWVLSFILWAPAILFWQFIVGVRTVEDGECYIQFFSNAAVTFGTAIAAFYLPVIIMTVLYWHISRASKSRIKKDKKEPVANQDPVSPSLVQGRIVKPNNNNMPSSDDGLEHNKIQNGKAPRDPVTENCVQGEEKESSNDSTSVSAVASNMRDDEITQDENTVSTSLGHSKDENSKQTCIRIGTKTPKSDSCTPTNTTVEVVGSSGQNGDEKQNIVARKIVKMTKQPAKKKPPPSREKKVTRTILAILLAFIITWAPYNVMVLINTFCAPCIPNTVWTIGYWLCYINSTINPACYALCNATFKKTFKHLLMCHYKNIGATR
Procedure: (§1) Functional Mobilization of Intracellular Calcium to Determine Muscarinic Receptor Activity:
(§2) CHO cells expressing muscarinic receptors (M1 to M5) are grown as monolayers in tissue culture flasks at 37° C. in a humidified atmosphere containing 5% CO2 and passaged every 3-5 days. The growth media is Dulbecco's modified eagles medium (DMEM, Gibco Cat #12430-054), containing 25 mM Hepes and supplemented with Fetal Bovine Serum (Hyclone, cat #SH30071.03), 0.1 mM of MEM non-essential amino acids (GIBCO, Cat #11140-050), 1 mM MEM Sodium Pyruvate (GIBCO Cat #11360-070) and 100 units/ml of Penicillin G and 100 μg/ml of Streptomycin (GIBCO Cat #15140-122). The recombinant muscarinic receptor cell lines are grown under antibiotic pressure with media containing 25 μg/ml zeocin and 500 μg/ml G418 (M1-CHO), 4 μg/ml puromycin, 50 μg/ml zeocin and 2.5 μg/ml blasticidin (M2 and M4-CHO) or 50 μg/ml zeocin and 4 μg/ml puromycin (M3 and M5-CHO).
(§3) Cells are harvested at 80-90% confluence using Versene (GIBCO Cat #15040-066), collected by centrifugation and seeded 18-24 hrs prior to running the calcium assay at a density of 5,000-10,000 cells/well in […], clear-bottomed 384-well plates (BD Biocoat, poly-D-lysine, Cat #356663). The day of the experiment, the cells are washed with a plate washer (Bioteck Instruments, ELX 405) using bath 1 buffer (140-mM NaCl, 4.5-mM KCl, 2-mM CaCl2, 1-mM MgCl2, 10-mM Hepes-Na, 10-mM Glucose, pH 7.4, with NaOH) containing 1 mM Probenecid. Next, the calcium dye Fluo-3 (25 μl/well of Fluo-3 AM at 4 μM, Molecular Probes F-1241, in Bath 1 buffer containing 1 mM Probenecid) is added to the 25 μl of Bath 1 remaining in each well after the plate wash and the dye is loaded at 37° C. in the tissue culture incubator for 60-90 min. The fluorescent dye is removed using the plate washer with Bath 1 containing 1 mM Probenecid, leaving 25 μl/well of this solution after the wash. Alternatively, cells can be loaded with the calcium indicator from Molecular Devices (Calcium 3 Assay Reagents, Cat #R7181) adding 5 μl of a 5× solution dye in Bath 1 containing 1 mM Probenecid (10 ml per dye flask cat #R7182 to generate a solution 20×) to 20 μl of the same buffer. After loading for 60 min, the experiment can be run without having to remove the dye.
(§4) Compounds are prepared at a 2× fold concentration in a 96-well plate (round bottom, Costar Corning cat #3656), by reconstituting the pre-spotted compounds in bath 1 containing 1 mM probenecid. The final concentration DMSO is 0.5%, and the amount of DMSO is normalized across the assay plate. To determine an agonist action of the compounds on muscarinic receptors, the reconstituted compounds are added (25 μl compound/well) to the cell assay plate (containing 25 μl/well) using the multi-channel robotic system of the FLIPR 3 Instrument (Molecular Devices, Sunnyvale, Calif.). To determine a functional inhibitory action of the compounds on muscarinic receptors, the reconstituted compounds are added (25 μl compound/well) to the assay plate and pre-incubated for 15 min prior to adding 25 μl of Carbachol at 3× the EC80 for each muscarinic subtype. Alternatively, the compounds can be co-applied simultaneously with the agonist. In both assay modes, the fluorescence is recorded for 60 sec (excitation wavelength is […] and emission wavelength 540 nm) using the FLIPR 3 instrument.
(§5) The potency, efficacy and selectivity of the muscarinic compounds were evaluated by screening the compound activity across the whole family (M1 to M5 cells). Compounds were also screened for activity on other proteins such as other GPCRs and ion channels to determine selectivity on M4 receptors.
(§6) Examples of activities and efficacies of the muscarinic compounds of formulae (I, Ia, Ib, and II) on modulating M1, M2, M3 and M4 receptors are shown below in Table 3. […]

M1 muscarinic receptor = target: T2, M1 muscarinic receptor (Homo sapiens, UniProt P11229); assay: Functional mobilization of intracellular calcium (FLIPR), M1-CHO cells; conditions: for M1 Activity: M1-CHO cells, calcium mobilization (FLIPR)
T2 construct: expressed in transfected cells; host or cells: CHO (M1-CHO)
T2 sequence (P11229 1-460): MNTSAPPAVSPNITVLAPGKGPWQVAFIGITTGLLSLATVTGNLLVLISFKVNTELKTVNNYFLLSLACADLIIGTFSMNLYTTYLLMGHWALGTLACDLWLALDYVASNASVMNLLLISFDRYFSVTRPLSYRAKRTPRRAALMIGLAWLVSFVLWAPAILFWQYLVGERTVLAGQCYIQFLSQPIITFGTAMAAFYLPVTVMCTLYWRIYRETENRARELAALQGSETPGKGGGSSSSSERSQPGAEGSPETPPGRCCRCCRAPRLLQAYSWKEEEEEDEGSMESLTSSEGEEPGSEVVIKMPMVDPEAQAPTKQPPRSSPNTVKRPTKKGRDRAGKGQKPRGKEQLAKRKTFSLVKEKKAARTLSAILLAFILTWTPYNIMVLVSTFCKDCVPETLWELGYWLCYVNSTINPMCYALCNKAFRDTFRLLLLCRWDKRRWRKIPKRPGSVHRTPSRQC
Procedure: as §1, §2, §3, §4, §5, §6

M4 muscarinic receptor = target: T3, M4 muscarinic receptor (Homo sapiens, UniProt P08173); assay: Functional mobilization of intracellular calcium (FLIPR), M4-CHO cells; conditions: for M4 Activity: M4-CHO cells, calcium mobilization (FLIPR)
T3 construct: expressed in transfected cells; host or cells: CHO (M4-CHO)
T3 sequence (P08173 1-479): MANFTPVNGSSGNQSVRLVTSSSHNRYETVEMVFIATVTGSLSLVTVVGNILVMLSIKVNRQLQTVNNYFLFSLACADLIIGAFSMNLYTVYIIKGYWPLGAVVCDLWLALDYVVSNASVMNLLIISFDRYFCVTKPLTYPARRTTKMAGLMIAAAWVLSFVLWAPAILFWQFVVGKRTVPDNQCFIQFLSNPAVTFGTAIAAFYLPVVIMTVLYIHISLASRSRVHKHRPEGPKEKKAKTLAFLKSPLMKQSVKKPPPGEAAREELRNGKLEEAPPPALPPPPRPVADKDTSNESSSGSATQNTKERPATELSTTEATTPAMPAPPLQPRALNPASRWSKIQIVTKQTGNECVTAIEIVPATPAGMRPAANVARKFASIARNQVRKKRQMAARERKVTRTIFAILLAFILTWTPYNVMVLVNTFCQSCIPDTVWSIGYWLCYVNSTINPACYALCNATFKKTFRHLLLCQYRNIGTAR
Procedure: as §1, §2, §3, §4, §5, §6

[1] = 100% efficacy is the maximum response obtained with the Carbachol control
[2] = 100% efficacy = maximum response obtained with the Carbachol control

Row | SMILES | Emax (M2 muscarinic receptor; [1]) | M2 Activity (M2 muscarinic receptor) | Emax (M1 muscarinic receptor; [1]) | M1 Activity (M1 muscarinic receptor) | Emax (M4 muscarinic receptor; [1]) | M4 Activity (M4 muscarinic receptor) | Emax (M2 muscarinic receptor; [2]) | Emax (M1 muscarinic receptor; [2]) | Emax (M4 muscarinic receptor; [2])
1 | COc1ccccc1C1(C#N)CCN(C2CCOCC2)CC1 [Compound 379] | < 25% | + (activity was measured to be greater than 5.0 μM) | < 25% | + (activity was measured to be greater than 5.0 μM) | < 25% | + (activity was measured to be greater than 5.0 μM) | – | – | –
2 | COc1ccccc1C1CCN(CC2CC3CCC(C3)C2)CC1 (stereo not drawn) [Compound 28] | – | + (activity was measured to be greater than 5.0 μM) | – | + (activity was measured to be greater than 5.0 μM) | – | + (activity was measured to be greater than 5.0 μM) | < 25% | < 25% | < 25%
3 | COc1ccc(NC(C)=O)cc1C1CCN(C2C[C@H]3CC[C@H](C2)C3)CC1 (stereo partly drawn) [Compound 75] | – | + (activity was measured to be greater than 5.0 μM) | – | + (activity was measured to be greater than 5.0 μM) | – | ++ (activity was measured to be from 1.0 μM to 5.0 μM) | < 25% | < 25% | 25 to 100%
4 | COc1ccccc1C1CCN(CC2CC3CCC2O3)CC1 (stereo not drawn) [Compound 218] | – | + (activity was measured to be greater than 5.0 μM) | – | + (activity was measured to be greater than 5.0 μM) | – | ++ (activity was measured to be from 1.0 μM to 5.0 μM) | < 25% | < 25% | 25 to 100%
5 | CCCC1CCC(N2CCC(OC)(c3cc(Cl)ccc3OC)CC2)CC1 (stereo not drawn) [Compound 316] | – | + (activity was measured to be greater than 5.0 μM) | – | ++ (activity was measured to be from 1.0 μM to 5.0 μM) | – | ++ (activity was measured to be from 1.0 μM to 5.0 μM) | < 25% | 25 to 100% | 25 to 100%
6 | COc1ccc(C)cc1C1CCN(CC2C[C@H]3CC[C@H]2C3)CC1 (stereo partly drawn) [Compound 107] | – | + (activity was measured to be greater than 5.0 μM) | – | + (activity was measured to be greater than 5.0 μM) | – | +++ (activity was measured to be less than 1.0 μM) | < 25% | 25 to 100% | 25 to 100%
7 | COc1ccc(OC)c(C2CCN(CC3C[C@H]4CC[C@H]3C4)CC2)c1 (stereo partly drawn) [Compound 344] | – | + (activity was measured to be greater than 5.0 μM) | – | + (activity was measured to be greater than 5.0 μM) | – | ++ (activity was measured to be from 1.0 μM to 5.0 μM) | < 25% | < 25% | 25 to 100%
8 | CCCC1CCC(N2CCC(c3cc(Cl)ccc3OC)CC2)CC1 (stereo not drawn) [Compound 293] | – | ++ (activity was measured to be from 1.0 μM to 5.0 μM) | – | ++ (activity was measured to be from 1.0 μM to 5.0 μM) | – | ++ (activity was measured to be from 1.0 μM to 5.0 μM) | 25 to 100% | 25 to 100% | 25 to 100%
9 | Cc1ccc(Cl)cc1C1CCN(C2CC[C@H]3CC[C@H]2C3)CC1 (stereo partly drawn) [Compound 96] | – | ++ (activity was measured to be from 1.0 μM to 5.0 μM) | – | +++ (activity was measured to be less than 1.0 μM) | – | +++ (activity was measured to be less than 1.0 μM) | 25 to 100% | 25 to 100% | 25 to 100%
10 | COc1ccccc1C1(C#N)CCN(C2CC3CCC(C3)C2)CC1 (stereo not drawn) [Compound 421] | < 25% | ++ (activity was measured to be from 1.0 μM to 5.0 μM) | 25 to 100% | ++ (activity was measured to be from 1.0 μM to 5.0 μM) | 25 to 100% | +++ (activity was measured to be less than 1.0 μM) | – | – | –
11 | COc1ccccc1C1(C#N)CCN(C[C@@H]2C[C@H]3C=C[C@H]2C3)CC1 [Compound 359] | – | ++ (activity was measured to be from 1.0 μM to 5.0 μM) | – | ++ (activity was measured to be from 1.0 μM to 5.0 μM) | – | +++ (activity was measured to be less than 1.0 μM) | 25 to 100% | 25 to 100% | 25 to 100%
12 | Cc1ccc(F)cc1C1CCN([C@H]2CC[C@H]3CC[C@H]2C3)CC1 [Compound 81] | – | + (activity was measured to be greater than 5.0 μM) | – | + (activity was measured to be greater than 5.0 μM) | – | ++ (activity was measured to be from 1.0 μM to 5.0 μM) | 25 to 100% | 25 to 100% | 25 to 100%
13 | COc1ccc(Cl)cc1C1CCN(CC2CC3C=CC2C3)CC1 (stereo not drawn) [Compound 141] | – | ++ (activity was measured to be from 1.0 μM to 5.0 μM) | – | ++ (activity was measured to be from 1.0 μM to 5.0 μM) | – | +++ (activity was measured to be less than 1.0 μM) | 25 to 100% | 25 to 100% | 25 to 100%
